{
  "source": "patent US20210392895A1",
  "about": "“NOVEL OXADIAZOLES” (PI INDUSTRIES LIMITED, priority 2018, published 2021)",
  "note": "Counter-ions that a name gives are not always drawn.",
  "data": [
    {"tested_on": "Pyricularia oryzae", "test": "microbe, parasite or virus in culture", "assay_type": "cell-based", "details": "168 h, read-out: control", "units": {"inhibition of growth at 300 ppm": "%"}, "values": [
      {"smiles": "CCS(=O)(=O)N1CC[C@H](Oc2ccc(-c3noc(C(F)(F)F)n3)cc2)C1", "note": "[Compound 40, (S)-3-(4-((1-(ethylsulfonyl)pyrrolidin-3-yl)oxy)phenyl)-5-(trifluoromethyl)-1,2,4-oxadiazole]", "inhibition of growth at 300 ppm": "> 70"},
      {"smiles": "O=C(c1ccncc1)N1CC[C@@H](Oc2ccc(-c3noc(C(F)(F)F)n3)cn2)C1", "note": "[Compound 78, (R)-pyridin-4-yl(3-((5-(5-(trifluoromethyl)-1,2,4-oxadiazol-3-yl)pyridin-2-yl)oxy)pyrrolidin-1-yl)methanone]", "inhibition of growth at 300 ppm": "> 70"},
      {"smiles": "CC(=O)N1CC(N(c2ccc(-c3noc(C(F)(F)F)n3)cc2)c2ccc(-c3noc(C(F)(F)F)n3)cc2)C1", "note": "[Compound 90, 1-(3-(bis(4-(5-(trifluoromethyl)-1,2,4-oxadiazol-3-yl)phenyl)amino)azetidin-1-yl)ethan-1-one]", "inhibition of growth at 300 ppm": "> 70"},
      {"smiles": "O=C(c1ccccc1F)N1CCC(Oc2ccc(-c3noc(C(F)(F)F)n3)cc2)CC1", "note": "[Compound 92, (2-fluorophenyl)(4-(4-(5-(trifluoromethyl)-1,2,4-oxadiazol-3-yl)phenoxy)piperidin-1-yl)methanone]", "inhibition of growth at 300 ppm": "> 70"}
    ]},
    {"tested_on": "Phakopsora pachyrhizi", "test": "Phakopsora pachyrhizi test in soybean (greenhouse, preventive activity, disease severity rating)", "assay_type": "in vivo", "details": "preventive spray on soybean, compared to the untreated check", "description": "To test the preventive activity of compounds, healthy young soybean plants, raised in the greenhouse, were sprayed with the active compound solution at the stated application rates inside spray cabinets using hallowcone nozzles. One day after treatment, the plants were inoculated with a suspension containing 2.1×10^6 Phakopsora pachyrhizi spores. The inoculated plants were then kept in the greenhouse chamber at 25° C. temperature and 90% relative humidity for disease expression. A visual assessment of the compound's performance was carried out by rating the disease severity (0-100% scale) on treated plants on 3, 7, 10 and 15 days after application. Efficacy (% control) of the compounds was calculated by comparing the disease rating in the treatment with the one of the untreated control. The treated plants were also assessed for plant compatibility by recording symptoms like necrosis, chlorosis and stunting.", "units": {"pest or weed control at 500 ppm": "%"}, "values": [
      {"smiles": "CCCS(=O)(=O)N1CC[C@H](Oc2ccc(-c3noc(C(F)(F)F)n3)cn2)C1", "note": "[Compound 110, (S)-3-(6-((1-(propylsulfonyl)pyrrolidin-3-yl)oxy)pyridin-3-yl)-5-(trifluoromethyl)-1,2,4-oxadiazole]", "pest or weed control at 500 ppm": "> 70"},
      {"smiles": "CS(=O)(=O)N1CC[C@H](Oc2ccc(-c3noc(C(F)(F)F)n3)cn2)C1", "note": "[Compound 111, (S)-3-(6-((1-(methylsulfonyl)pyrrolidin-3-yl)oxy)pyridin-3-yl)-5-(trifluoromethyl)-1,2,4-oxadiazole]", "pest or weed control at 500 ppm": "> 70"},
      {"smiles": "Cc1cccc(S(=O)(=O)N2CC[C@H](Oc3ccc(-c4noc(C(F)(F)F)n4)cn3)C2)c1", "note": "[Compound 112, (S)-3-(6-((1-(m-tolylsulfonyl)pyrrolidin-3-yl)oxy)pyridin-3-yl)-5-(trifluoromethyl)-1,2,4-oxadiazole]", "pest or weed control at 500 ppm": "> 70"},
      {"smiles": "O=S(=O)(N1CC[C@H](Oc2ccc(-c3noc(C(F)(F)F)n3)cc2)C1)C(F)(F)F", "note": "[Compound 114, (S)-5-(trifluoromethyl)-3-(4-((1-((trifluoromethyl)sulfonyl)pyrrolidin-3-yl)oxy)phenyl)-1,2,4-oxadiazole]", "pest or weed control at 500 ppm": "> 70"},
      {"smiles": "CCCS(=O)(=O)N1CC[C@H](Oc2ccc(-c3noc(C(F)(F)F)n3)cc2)C1", "note": "[Compound 115, (S)-3-(4-((1-(propylsulfonyl)pyrrolidin-3-yl)oxy)phenyl)-5-(trifluoromethyl)-1,2,4-oxadiazole]", "pest or weed control at 500 ppm": "> 70"},
      {"smiles": "O=S(=O)(c1ccc(Br)cc1)N1CC[C@H](Oc2ccc(-c3noc(C(F)(F)F)n3)cc2)C1", "note": "[Compound 116, (S)-3-(4-((1-((4-bromophenyl)sulfonyl)pyrrolidin-3-yl)oxy)phenyl)-5-(trifluoromethyl)-1,2,4-oxadiazole]", "pest or weed control at 500 ppm": "> 70"},
      {"smiles": "O=S(=O)(c1ccc(Cl)cc1Cl)N1CC[C@H](Oc2ccc(-c3noc(C(F)(F)F)n3)cc2)C1", "note": "[Compound 120, (S)-3-(4-((1-((2,4-dichlorophenyl)sulfonyl)pyrrolidin-3-yl)oxy)phenyl)-5-(trifluoromethyl)-1,2,4-oxadiazole]", "pest or weed control at 500 ppm": "> 70"},
      {"smiles": "N#Cc1ccc(S(=O)(=O)N2CC[C@H](Oc3ccc(-c4noc(C(F)(F)F)n4)cc3)C2)cc1", "note": "[Compound 121, (S)-4-((3-(4-(5-(trifluoromethyl)-1,2,4-oxadiazol-3-yl)phenoxy)pyrrolidin-1-yl)sulfonyl)benzonitrile]", "pest or weed control at 500 ppm": "> 70"},
      {"smiles": "O=S(=O)(c1cccc(Cl)c1)N1CC[C@H](Oc2ccc(-c3noc(C(F)(F)F)n3)cc2)C1", "note": "[Compound 122, (S)-3-(4-((1-((3-chlorophenyl)sulfonyl)pyrrolidin-3-yl)oxy)phenyl)-5-(trifluoromethyl)-1,2,4-oxadiazole]", "pest or weed control at 500 ppm": "> 70"},
      {"smiles": "CN(c1ccc(-c2noc(C(F)(F)F)n2)cc1)C1CN(C(=O)c2ccc(F)cc2)C1", "note": "[Compound 124, (4-fluorophenyl)(3-(methyl(4-(5-(trifluoromethyl)-1,2,4-oxadiazol-3-yl)phenyl)amino)azetidin-1-yl)methanone]", "pest or weed control at 500 ppm": "> 70"},
      {"smiles": "CC(C)(C)OC(=O)N1CCC(Oc2cccc(-c3noc(C(F)(F)F)n3)c2)C1", "note": "(centres unmarked) [Compound 127, tert-butyl 3-(3-(5-(trifluoromethyl)-1,2,4-oxadiazol-3-yl)phenoxy)pyrrolidine-1-carboxylate]", "pest or weed control at 500 ppm": "> 70"},
      {"smiles": "FC(F)(F)c1nc(-c2cccc(OC3CCNC3)c2)no1", "note": "(centres unmarked) [Compound 128, 3-(3-(pyrrolidin-3-yloxy)phenyl)-5-(trifluoromethyl)-1,2,4-oxadiazole hydrochloride]", "pest or weed control at 500 ppm": "> 70"},
      {"smiles": "CN(c1ccc(-c2noc(C(F)(F)F)n2)cc1)C1CN(C(=O)C(C)(C)C)C1", "note": "[Compound 129, 2,2-dimethyl-1-(3-(methyl(4-(5-(trifluoromethyl)-1,2,4-oxadiazol-3-yl)phenyl)amino)azetidin-1-yl)propan-1-one]", "pest or weed control at 500 ppm": "> 70"},
      {"smiles": "CC(C)(C)C(=O)N1CCC(Oc2cccc(-c3noc(C(F)(F)F)n3)c2)C1", "note": "(centres unmarked) [Compound 130, 2,2-dimethyl-1-(3-(3-(5-(trifluoromethyl)-1,2,4-oxadiazol-3-yl)phenoxy)pyrrolidin-1-yl)propan-1-one]", "pest or weed control at 500 ppm": "> 70"},
      {"smiles": "O=C(c1ccc(F)cc1)N1CCC(Oc2ccc(-c3noc(C(F)(F)F)n3)cc2)CC1", "note": "[Compound 142, (4-fluorophenyl)(4-(4-(5-(trifluoromethyl)-1,2,4-oxadiazol-3-yl)phenoxy)piperidin-1-yl)methanone]", "pest or weed control at 500 ppm": "> 70"},
      {"smiles": "O=C(c1ccc(C(F)(F)F)cc1)N1CCC(Oc2cccc(-c3noc(C(F)(F)F)n3)c2)C1", "note": "(centres unmarked) [Compound 143, (3-(3-(5-(trifluoromethyl)-1,2,4-oxadiazol-3-yl)phenoxy)pyrrolidin-1-yl)(4-(trifluoromethyl)phenyl)methanone]", "pest or weed control at 500 ppm": "> 70"},
      {"smiles": "O=C(c1cccc(Cl)c1)N1CCC(Oc2cccc(-c3noc(C(F)(F)F)n3)c2)C1", "note": "(centres unmarked) [Compound 144, (3-chlorophenyl)(3-(3-(5-(trifluoromethyl)-1,2,4-oxadiazol-3-yl)phenoxy)pyrrolidin-1-yl)methanone]", "pest or weed control at 500 ppm": "> 70"},
      {"smiles": "O=C(Cc1ccc(Cl)cc1)N1CCC(Oc2ccc(-c3noc(C(F)(F)F)n3)cc2)CC1", "note": "[Compound 145, 2-(4-chlorophenyl)-1-(4-(4-(5-(trifluoromethyl)-1,2,4-oxadiazol-3-yl)phenoxy)piperidin-1-yl)ethan-1-one]", "pest or weed control at 500 ppm": "> 70"},
      {"smiles": "COc1ccc(C(=O)N2CCC(Oc3cccc(-c4noc(C(F)(F)F)n4)c3)C2)cc1", "note": "(centres unmarked) [Compound 146, (4-methoxyphenyl)(3-(3-(5-(trifluoromethyl)-1,2,4-oxadiazol-3-yl)phenoxy)pyrrolidin-1-yl)methanone]", "pest or weed control at 500 ppm": "> 70"},
      {"smiles": "Cc1ccsc1S(=O)(=O)N1CC[C@H](Oc2ccc(-c3noc(C(F)(F)F)n3)cc2)C1", "note": "[Compound 147, (S)-3-(4-((1-((3-methylthiophen-2-yl)sulfonyl)pyrrolidin-3-yl)oxy)phenyl)-5-(trifluoromethyl)-1,2,4-oxadiazole]", "pest or weed control at 500 ppm": "> 70"},
      {"smiles": "Cn1cnc(S(=O)(=O)N2CC[C@H](Oc3ccc(-c4noc(C(F)(F)F)n4)cc3)C2)c1", "note": "[Compound 148, (S)-3-(4-((1-((1-methyl-1H-imidazol-4-yl)sulfonyl)pyrrolidin-3-yl)oxy)phenyl)-5-(trifluoromethyl)-1,2,4-oxadiazole]", "pest or weed control at 500 ppm": "> 70"},
      {"smiles": "O=S(=O)(c1cccc(F)c1)N1CC[C@H](Oc2ccc(-c3noc(C(F)(F)F)n3)cn2)C1", "note": "[Compound 149, (S)-3-(6-((1-((3-fluorophenyl)sulfonyl)pyrrolidin-3-yl)oxy)pyridin-3-yl)-5-(trifluoromethyl)-1,2,4-oxadiazole]", "pest or weed control at 500 ppm": "> 70"},
      {"smiles": "N#Cc1ccc(S(=O)(=O)N2CC[C@H](Oc3ccc(-c4noc(C(F)(F)F)n4)cn3)C2)cc1", "note": "[Compound 150, (S)-4-((3-((5-(5-(trifluoromethyl)-1,2,4-oxadiazol-3-yl)pyridin-2-yl)oxy)pyrrolidin-1-yl)sulfonyl)benzonitrile]", "pest or weed control at 500 ppm": "> 70"},
      {"smiles": "O=S(=O)(c1cccc(C(F)(F)F)c1)N1CC[C@H](Oc2ccc(-c3noc(C(F)(F)F)n3)cn2)C1", "note": "[Compound 151, (S)-5-(trifluoromethyl)-3-(6-((1-((3-(trifluoromethyl)phenyl)sulfonyl)pyrrolidin-3-yl)oxy)pyridin-3-yl)-1,2,4-oxadiazole]", "pest or weed control at 500 ppm": "> 70"},
      {"smiles": "O=S(=O)(c1ccccc1F)N1CC[C@H](Oc2ccc(-c3noc(C(F)(F)F)n3)cn2)C1", "note": "[Compound 152, (S)-3-(6-((1-((2-fluorophenyl)sulfonyl)pyrrolidin-3-yl)oxy)pyridin-3-yl)-5-(trifluoromethyl)-1,2,4-oxadiazole]", "pest or weed control at 500 ppm": "> 70"},
      {"smiles": "O=S(=O)(c1cccnc1)N1CC[C@H](Oc2ccc(-c3noc(C(F)(F)F)n3)cn2)C1", "note": "[Compound 153, (S)-3-(6-((1-(pyridin-3-ylsulfonyl)pyrrolidin-3-yl)oxy)pyridin-3-yl)-5-(trifluoromethyl)-1,2,4-oxadiazole]", "pest or weed control at 500 ppm": "> 70"},
      {"smiles": "CC(C)S(=O)(=O)N1CC[C@H](Oc2ccc(-c3noc(C(F)(F)F)n3)cn2)C1", "note": "[Compound 155, (S)-3-(6-((1-(isopropylsulfonyl)pyrrolidin-3-yl)oxy)pyridin-3-yl)-5-(trifluoromethyl)-1,2,4-oxadiazole]", "pest or weed control at 500 ppm": "> 70"},
      {"smiles": "CC(C)(C)OC(=O)N1CC[C@@H](Sc2ccc(-c3noc(C(F)(F)F)n3)cc2)C1", "note": "[Compound 157, tert-butyl (R)-3-((4-(5-(trifluoromethyl)-1,2,4-oxadiazol-3-yl)phenyl)thio)pyrrolidine-1-carboxylate]", "pest or weed control at 500 ppm": "> 70"}
    ]}
  ]
}
